Test results reported in patent US10731134B2, “Production method for artificial cancer stem cell and induced differentiation method therefor” (Public University Corporation Yokohama City University, priority 2011, dated 2020).
“Also recorded” adds a separate entry of the source.

Legend:
[1] = system: (CD44high/CD24low) cancer stem cells; conditions: mixed population of cancer stem cells and cancer cells; Gupta et al. 2009; cited from earlier work
[2] = system: (CD44low/CD24high) cancer cells; conditions: mixed population of cancer stem cells and cancer cells; Gupta et al. 2009; cited from earlier work
[3] = system: CSC-10A-D9 induced by differentiation from CSC-10A (induced cancer stem cells); assay: Induced differentiation of CSC-10A by addition of salinomycin (phase-contrast morphology, alkaline phosphatase staining, Western blot); format: cell-based, human
Experimental: Also, these cells were stained with an undifferentiation marker alkaline phosphatase (ALP). […] Next, these cells were lysed and subjected to Western blot.
Induced Differentiation Method for CSC-10A (Addition of Salinomycin)
CSC-10A was seeded over 10-cm dishes. After 24 hours, salinomycin was added to give a final concentration of […] and the culture was continued at 37° C. Four days after the addition of salinomycin, the cells were stained with alkaline phosphatase. The cells were recovered four days after the addition of salinomycin and subjected to Western blot which confirmed the expression of vimentin, β-catenin, and tubulin (control).

[4] = Western blot, 10 μM salinomycin, 4 days after addition

| SMILES | Effect on (CD44high/CD24low) cancer stem cells [1] | Effect on (CD44low/CD24high) cancer cells [2] | Staining with undifferentiation marker alkaline phosphatase (ALP-positive cells) ([3]; 10 μM salinomycin vs DMSO, 4 days after addition) | Size of each individual cell ([3]; 10 μM salinomycin vs DMSO, 4 days later) | Cell differentiation / morphology under a phase-contrast microscope ([3]; 10 μM salinomycin vs DMSO, observed 4 days later) | Expression of differentiation (epithelial) marker beta-catenin [3, 4] | Expression of stem cell (mesenchymal) marker vimentin [3, 4] |
| --- | --- | --- | --- | --- | --- | --- | --- |
| CC(=O)O[C@H]1C(=O)[C@@]2(C)[C@H]([C@H](OC(=O)c3ccccc3)[C@]3(O)C[C@H](OC(=O)[C@H](O)[C@@H](NC(=O)c4ccccc4)c4ccccc4)C(C)=C1C3(C)C)[C@]1(OC(C)=O)CO[C@@H]1C[C@@H]2O [Taxol] | left intact | only inhibits the growth of cancer cells |  |  |  |  |  |
| CC[C@@H](C(=O)[C@@H](C)[C@@H](O)[C@H](C)[C@@H]1O[C@@H]([C@@H](CC)C(=O)O)CC[C@@H]1C)[C@H]1O[C@]2(C=C[C@@H](O)[C@]3(CC[C@@](C)([C@H]4CC[C@](O)(CC)[C@H](C)O4)O3)O2)[C@H](C)C[C@@H]1C [salinomycin] | kills only cancer stem cells | leaving cancer cells intact | significant decrease in ALP-positive cells; also recorded: decreased | increased | differentiated into epithelial-like cells | increase | decrease |
